Experimental data: publication PMC8428848, “Ancient role of sulfakinin/cholecystokinin-type signalling in inhibitory regulation of feeding processes revealed in an echinoderm” (eLife, 2021)
Where “and” joins values, the source holds several entries; their conditions need not be identical. Equal entries are not always repeated. Square brackets hold non-standard residues; d marks the D form. Peptide text beside a SMILES is read from it. sY = N[C@@H](Cc1ccc(OS(=O)(=O)O)cc1)C(=O)O; pGlu = O=C1CC[C@@H](C(=O)O)N1

What was measured:
[1] = tested on: apical muscle preparations; assay: In vitro contraction of apical muscle preparations (organ bath); set-up: species or system Asterias rubens; details: for contraction of apical muscle preparations: in vitro; for contracting action on apical muscle, % of the effect of 10 µM acetylcholine: highest concentration tested (1 µM), n = 20–23
Method: (§1) Effects of peptides on preparations were tested and recorded using an isotonic transducer (MLT0015, ADInstruments Pty Ltd) connected to a bridge amplifier (FE221 Bridge Amp, ADInstruments Pty Ltd) linked to PowerLab data acquisition hardware (2/36, ADInstruments Pty Ltd). Data were collected and analysed using LabChart (RRID:SCR_017551; v8.0.7) software installed on a laptop computer (Lenovo E540, Windows 7 Professional). Stock solutions of synthetic peptides were prepared in distilled water and added to the organ bath to achieve final concentrations ranging from 0.1 nM to 1 μM. To assess the viability of preparations and to enable normalization of responses to ArSK/CCK1 or ArSK/CCK2, the starfish neuropeptide NGFFYamide (100 nM) was tested on cardiac stomach preparations and acetylcholine (10 µM) was tested on tube foot and apical muscle preparations. To assess the importance of tyrosine sulphation for peptide bioactivity, a non-sulphated analog of ArSK/CCK2 (ArSK/CCK2(ns)) was also tested on cardiac stomach (n = 5), tube foot, and apical muscle preparations (data not shown).

Asterias rubens [2] = assay: In vivo retraction of the everted cardiac stomach after injection; details: for cardiac stomach retraction in vivo: injection of 10 nmol (10 μl of 1 mM) into perivisceral coelom, eversion induced with 2% MgCl2 in seawater, 6 min; for reduction in the area of cardiac stomach everted: within 360 s after injection of 10 mol (10 µl 1 mM), normalized to area at T0, n = 6 (ArSK/CCK1), 6 (ArSK/CCK2), 8 (ArSK/CCK2(ns))
Method: Therefore, experiments were performed to investigate if ArSK/CCK1 and ArSK/CCK2 also trigger cardiac stomach retraction in A. rubens. Twenty specimens of A. rubens, which had been withheld from a food supply for 1 week, were placed in a glass tank containing 2% magnesium chloride (MgCl2; Sigma-Aldrich, Gillingham, UK) dissolved in seawater, which acts as a muscle relaxant in marine invertebrates ([Mayer, 1909]). This treatment conveniently and reproducibly causes eversion of the cardiac stomach in A. rubens, typically within a period of ~30 min ([Semmens et al., 2013]). Hamilton 75 N 10 μl syringes (Sigma-Aldrich, Gillingham, UK) were used to inject test compounds into the perivisceral coelom of animals, inserting the needle through the aboral body wall of the arms proximal to the junctions with the central disk region. Care was taken to inject neuropeptides (ArSK/CCK1, ArSK/CCK2 and ArSK/CCK2(ns)) or distilled water (control) into the perivisceral coelom and not into the cardiac stomach. All animals were first injected with 10 μl of distilled water (control) and video-recorded for 6 min. The same animals were then injected with 10 μl of 1 mM peptide (10 nmol) and video-recorded for 6 min. Static images from video recordings were captured at 30 s intervals from the time of injection. Then the two-dimensional area of everted cardiac stomach was measured from the images using the ImageJ software (version 1.0; http://rsb.info.nih.gov/ij) and normalized as a percentage of the area of cardiac stomach everted at the time of injection (T0).

[3] = tested on: cardiac stomach preparations; assay: In vitro contraction of cardiac stomach preparations (organ bath); set-up: species or system Asterias rubens; details: for contraction of cardiac stomach preparations: in vitro, 1 nM to 1 μM, n = 5–9; for effect compared with NGFFYamide (100 nM): peptide 1 µM, Student's t-test p > 0.05, data not shown
Method: as §1

[4] = tested on: CHO-K1 cells transfected with an empty vector; assay: Control: CHO-K1 aequorin (G5A) cells transfected with empty pcDNA 3.1(+) vector; type: cell-based, Chinese hamster
Text: To enable testing of ArSK/CCK1 and ArSK/CCK2 as candidate ligands for ArSK/CCKR, a full-length cDNA encoding ArSK/CCKR was synthesized by GenScript (Piscataway, NJ) and cloned into pcDNA 3.1+ vector (Invitrogen, Thermo Fisher Scientific, Waltham, MA). A partial Kozak translation initiation sequence (CACC) was introduced upstream to the start codon (ATG). CHO-K1 cells stably expressing the mitochondrial targeted calcium-sensitive bioluminescent reporter GFP-aequorin fusion protein (G5A) ([Baubet et al., 2000]) were used as a heterologous expression system for ArSK/CCKR. These cells have been used previously for neuropeptide receptor deorphanisation ([Bauknecht and Jékely, 2015]) and were generously supplied to us by Dr Gáspár Jékely (University of Exeter). The cell line was generated using the CHO-K1 cell line from Sigma-Aldrich (85051005; RRID: CVCL_0214), which is certified by the European Collection of Authenticated Cell Cultures (ECACC), and expression of the GFP-aequorin fusion protein (G5A) in the cell line was determined by functionality in displaying calcium-activated luminescence. […] Cells were cultured, co-transfected with the pcDNA 3.1+ vector containing the ArSK/CCKR cDNA sequence and plasmids encoding the promiscuous human G-protein Gα16. Then bioluminescence-based receptor assays were performed, as described previously for A. rubens luqin-type receptors ([Yañez-Guerra et al., 2018]).
The peptides were diluted in distilled water and tested as candidate ligands for ArSK/CCKR at concentrations ranging from 3 × 10^−17 to 10^−4 M. Concentration-response data were determined as a percentage of the highest response for each peptide (100% activation). EC50 values were calculated from concentration-response curves based on four to six independent transfections and averaging two to three replicates in each transfection using Prism 6.0 (RRID:SCR_002798; GraphPad software, La Jolla, CA). Cells transfected with an empty vector were used for control experiments.

tube foot preparations = assay: In vitro contraction of tube foot preparations (organ bath); set-up: species or system Asterias rubens; details: for contraction of tube foot preparations: in vitro, 1 nM to 1 µM, n = 8–10; for mean effect on tube foot preparations, % of the effect of 10 µM acetylcholine: peptide 1 µM
Method: as §1

Asterias rubens [5] = assay: In vivo feeding behaviour on mussels after injection; details: for time to touch (first contact with a mussel) / time to enclose (time to adopt a feeding posture): 10 nmol (10 µl of 1 mM) injected; for time to touch (first contact with a mussel) / time to enclose (time to adopt a feeding posture) / starfish proceeding to a feeding posture after the first touch: compared with water-injected controls; for time to enclose (time to adopt a feeding posture): p = 0.0523 ArSK/CCK1, p < 0.05 ArSK/CCK2; for starfish proceeding to a feeding posture after the first touch / number of advances to touch the mussel / number of starfish that did not initiate feeding within the 5 hr (300 min) observation period: 10 nmol injected; for starfish proceeding to a feeding posture after the first touch: Fisher's exact test; for number of advances to touch the mussel: data not shown; for number of starfish that did not initiate feeding within the 5 hr (300 min) observation period: n = 11 ArSK/CCK1, n = 19 ArSK/CCK2; for time to touch / time to enclose: individual animals
Text: Here, the same methods employed by [Tinoco et al., 2018] were used to investigate if ArSK/CCK1 and/or ArSK/CCK2 affect feeding behaviour in starfish. […] Then, starfish were fasted for 24 days and transferred to and kept individually in Plexiglas aquaria, as described previously ([Tinoco et al., 2018]). […] The time taken for starfish to make first contact with a mussel (tube feet touching the mussel or time to touch the mussel), the number of attempts to touch, as well as the time to enclose the mussel (indicated by a feeding posture) were recorded. Starfish that were feeding after 24 hr were included in data analysis and any starfish in the control or test group that had not fed on a mussel after 24 hr were discarded from data analysis.

[6] = 10 µl of 1 mM peptide injected, n = 11
[7] = feeding experiments, count of animals
[8] = feeding experiments, percentage of animals

Compound: CC(C)C[C@H](NC(=O)CNC(=O)[C@H](Cc1ccccc1)NC(=O)CNC(=O)[C@H](Cc1ccc(O)cc1)NC(=O)[C@H](CCC(N)=O)NC(=O)[C@H](CC(=O)O)NC(=O)[C@H](CC(=O)O)NC(=O)CNC(=O)CN)C(=O)N[C@@H](Cc1ccccc1)C(=O)N[C@@H](Cc1ccccc1)C(N)=O [ArSK/CCK2(ns)] (H-GGDDQYGFGLFF-NH2; N-terminus assumed)
- contraction of apical muscle preparations [1]: no effect
- cardiac stomach retraction in vivo (Asterias rubens [2]): did not trigger cardiac stomach retraction
- reduction in the area of cardiac stomach everted (Asterias rubens [2]): no effect
- contraction of cardiac stomach preparations [3]: modest contraction
- luminescence response [4]: did not elicit luminescence responses
- contraction of tube foot preparations (tube foot preparations): did not cause contraction

Compound: CC(C)C[C@H](NC(=O)CNC(=O)[C@H](Cc1c[nH]cn1)NC(=O)CNC(=O)[C@H](Cc1ccc(OS(=O)(=O)O)cc1)NC(=O)[C@H](CC(=O)O)NC(=O)[C@H](CC(=O)O)NC(=O)[C@@H](NC(=O)[C@H](CCCCN)NC(=O)[C@H](CO)NC(=O)[C@@H]1CCC(=O)N1)C(C)C)C(=O)N[C@@H](Cc1ccccc1)C(=O)N[C@@H](Cc1c[nH]c2ccccc12)C(N)=O [ArSK/CCK1] ([pGlu]SKVDD[sY]GHGLFW-NH2)
- contracting action on apical muscle, % of the effect of 10 µM acetylcholine [1]: ~ 40%
- contraction of apical muscle preparations [1]: caused contraction
- cardiac stomach retraction in vivo (Asterias rubens [2]): triggered cardiac stomach retraction
- reduction in the area of cardiac stomach everted (Asterias rubens [2]): > 50%
- contraction of cardiac stomach preparations [3]: concentration-dependent contraction
- effect compared with NGFFYamide (100 nM) [3]: not significantly different
- luminescence response [4]: did not elicit luminescence responses
- effectiveness on tube foot preparations compared with ArSK/CCK2 (tube foot preparations; 25 and 100 nM, Bonferroni's test p < 0.01 and 0.05): significantly more effective than ArSK/CCK2
- contraction of tube foot preparations (tube foot preparations): concentration-dependent contraction
- mean effect on tube foot preparations, % of the effect of 10 µM acetylcholine (tube foot preparations): ~ 220%
- time to touch (first contact with a mussel) (Asterias rubens [5]): did not affect
- time to enclose (time to adopt a feeding posture) (Asterias rubens [5]): only a tendency to an increased time to enclose
- starfish proceeding to a feeding posture after the first touch (Asterias rubens [5]): fewer
- number of advances to touch the mussel (Asterias rubens [5]): increased number of advances
- number of starfish that did not initiate feeding within the 5 hr (300 min) observation period (Asterias rubens [5]): four
- Number of animals, First touch success (Asterias rubens [5]; [6]): 4
- Number of animals, Unsuccessful first touch (Asterias rubens [5]; [6]): 7
- Percentage, First touch success (Asterias rubens [5]; [6]): 36 Percentage
- Percentage, Unsuccessful first touch (Asterias rubens [5]; [6]): 64 Percentage
- time to touch (Asterias rubens [5]; one line each, 10 µl of 1 mM peptide injected): 10 min and 16 min and 8 min and 4 min and 2 min and 23 min and 19 min and 6 min and 3 min and 22 min and 48 min
- time to enclose (Asterias rubens [5]; one line each, 10 µl of 1 mM peptide injected, observation period 300 min): 215 min and 29 min and 4 min and 24 min and 10 min and 6 min and 144 min

Compound: CC(C)C[C@H](NC(=O)CNC(=O)[C@H](Cc1ccccc1)NC(=O)CNC(=O)[C@H](Cc1ccc(OS(=O)(=O)O)cc1)NC(=O)[C@H](CCC(N)=O)NC(=O)[C@H](CC(=O)O)NC(=O)[C@H](CC(=O)O)NC(=O)CNC(=O)CN)C(=O)N[C@@H](Cc1ccccc1)C(=O)N[C@@H](Cc1ccccc1)C(N)=O [ArSK/CCK2] (H-GGDDQ[sY]GFGLFF-NH2; N-terminus assumed)
- contracting action on apical muscle, % of the effect of 10 µM acetylcholine [1]: ~ 40%
- contraction of apical muscle preparations [1]: caused contraction
- cardiac stomach retraction in vivo (Asterias rubens [2]): triggered cardiac stomach retraction
- reduction in the area of cardiac stomach everted (Asterias rubens [2]): > 50%
- contraction of cardiac stomach preparations [3]: concentration-dependent contraction
- effect compared with NGFFYamide (100 nM) [3]: not significantly different
- luminescence response [4]: did not elicit luminescence responses
- contraction of tube foot preparations (tube foot preparations): concentration-dependent contraction
- mean effect on tube foot preparations, % of the effect of 10 µM acetylcholine (tube foot preparations): ~ 110%
- time to touch (first contact with a mussel) (Asterias rubens [5]): did not affect
- time to enclose (time to adopt a feeding posture) (Asterias rubens [5]): higher
- starfish proceeding to a feeding posture after the first touch (Asterias rubens [5]): fewer
- number of advances to touch the mussel (Asterias rubens [5]): increased number of advances
- number of starfish that did not initiate feeding within the 5 hr (300 min) observation period (Asterias rubens [5]): two
- Number of animals, First touch success (Asterias rubens [5]; [7]): 12
- Number of animals, Unsuccessful first touch (Asterias rubens [5]; [7]): 6
- time to enclose (Asterias rubens [5]; feeding experiments): 11.3 min and 199.3 min and 190.75 min and 21 min and 27 min and 53 min and 49 min and 10 min and 237 min and 12 min and 17 min and 300 min and 77 min and 88 min and 22 min and 50 min and 8 min and 46 min
- time to touch (Asterias rubens [5]; feeding experiments): 9 min and 6.9 min and 13.1 min and 13 min and 24 min and 49 min and 46 min and 6 min and 11 min and 7 min and 14 min and 36 min and 3 min and 18 min and 45 min and 4 min and 40 min
- Percentage, First touch success (Asterias rubens [5]; [8]): 67%
- Percentage, Unsuccessful first touch (Asterias rubens [5]; [8]): 33%
